Source: US11370771B2, “Inhibitors of TRPC6” (Boehringer Ingelheim International GmbH, priority 2018, dated 2022)

These compounds were tested against T1, human TRPC6 (Homo sapiens, UniProt Q9Y210) (assay: High Throughput Screening Assay Method 1 (FLIPR membrane potential dye, OAG activation, HEK293 cells expressing human TRPC6)). Conditions: antagonist effect against human TRPC6, 60 μM OAG, read-out: Fluorescence TRPC6 IC50.
T1 construct: expressed in transfected cells
T1 sequence (Q9Y210 1-931): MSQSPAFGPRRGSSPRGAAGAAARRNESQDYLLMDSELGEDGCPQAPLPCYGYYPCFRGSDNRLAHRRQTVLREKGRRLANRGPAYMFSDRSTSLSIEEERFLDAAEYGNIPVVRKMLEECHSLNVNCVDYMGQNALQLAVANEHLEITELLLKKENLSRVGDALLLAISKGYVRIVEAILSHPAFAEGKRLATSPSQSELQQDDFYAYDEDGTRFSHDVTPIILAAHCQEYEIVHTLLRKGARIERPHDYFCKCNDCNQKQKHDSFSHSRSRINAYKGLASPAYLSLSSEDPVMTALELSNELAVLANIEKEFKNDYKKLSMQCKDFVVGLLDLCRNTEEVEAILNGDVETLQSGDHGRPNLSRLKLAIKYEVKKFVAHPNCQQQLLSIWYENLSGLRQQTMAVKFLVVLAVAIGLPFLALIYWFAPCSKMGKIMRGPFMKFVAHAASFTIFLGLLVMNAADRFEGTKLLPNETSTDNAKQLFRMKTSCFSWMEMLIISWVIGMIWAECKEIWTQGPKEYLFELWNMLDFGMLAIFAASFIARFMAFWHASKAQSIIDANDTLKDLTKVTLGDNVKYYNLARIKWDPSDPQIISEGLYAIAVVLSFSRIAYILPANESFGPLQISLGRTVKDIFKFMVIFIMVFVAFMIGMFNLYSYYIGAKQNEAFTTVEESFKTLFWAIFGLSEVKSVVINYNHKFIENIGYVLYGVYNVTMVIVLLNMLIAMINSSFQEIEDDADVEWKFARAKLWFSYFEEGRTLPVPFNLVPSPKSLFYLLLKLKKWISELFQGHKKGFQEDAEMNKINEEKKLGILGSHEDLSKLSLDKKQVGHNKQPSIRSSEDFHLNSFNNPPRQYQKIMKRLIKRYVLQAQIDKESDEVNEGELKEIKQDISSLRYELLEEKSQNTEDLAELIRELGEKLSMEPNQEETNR
Assay type: cell-based
From the text: (§1) This screening assay measures TRPC6 (transient receptor potential cation channel, subfamily C, member 6) ion channel activation via addition either of the commercially available DAG ligand analogue OAG (1-oleoyl-2-acetyl-sn-glycerol) or of the TRPC6 agonist 1-[1-(4,5,6,7,8-pentahydrocyclohepta[2,1-d]thiophen-2-ylcarbonyl)-4-piperidyl]-3-hydrobenzimidazol-2-one (GSK1702934A). The assay utilizes a FLIPR membrane potential (FMP) dye from Molecular Devices, which is a voltage sensitive indicator with a fluorescent quencher. Changes in membrane potential as measured by the fluorescent signal increase during membrane depolarization provide a measurement of channel activity.
The commercially available HEK293 cell line expressing human TRPC6 channel (Axxam/PerkinElmer) is scaled up in bulk and frozen in liquid nitrogen. Frozen cell stocks are thawed and re-suspended in culture media as recommended by the manufacturer supplemented with 0.5 mg/ml of geneticin to promote retention of the TRPC6 construct. Cells are plated at a density of 15,000 cells/well in Greiner 384 well poly-D-lysine coated black clear bottom plates, and incubated for 18-20 h at 37° C. and 5% CO2. To initiate the assay, the growth media is removed using a plate washer and 25 ul of a FMP dye mix is added to each well. The 4× stock FMP dye from the manufacturer is diluted 1× with assay buffer (low calcium Tyrode's assay buffer: 130 mM NaCl, 5 mM KCl, 0.15 mM CaCl2), 1 mM MgCl2, 5 mM NaHCO3, 20 mM HEPES pH 7.4) containing 36 μM BAPTA/AM. The cells are incubated at room temperature (19-22° C.) for 30 minutes. For the screening assay, 5 uL of diluted compound stock is added to each well and incubated for 15 minutes at room temperature (19-22° C.). Using the Hamamatsu FDSS6000 or FDSS7000, 10 uL of the synthetic, membrane permeant analog of 1,2 diacylglycerol (DAG), 1-oleoyl-2-acetoyl-n-glycerol (OAG), is added and fluorescent readings taken every second from 50 seconds to 3 minutes. […] Controls and blanks consisted of HEK293 TRPC6 cells that are exposed to OAG. A reference inhibitor added along with the test compound is included as part of the blanks. This inhibitor suppresses the TRPC6 channel activation. These controls set the screening window, and “hits” are defined as those compounds inhibiting the membrane depolarization caused by OAG by at least 50%. IC50 values are determined for compounds that meet these criteria by titrating compound stock at a final starting concentration of 30 μM using a 3-fold serial dilution for 11 points. Curves are generated by fitting each data set to a four-parameter logistic equation using nonlinear regression.

| Structure (SMILES) | IC50 [nM] |
| --- | --- |
| Nc1ccc(C2CCN(C(=O)c3ccc(Oc4ccc(C5CC5)cc4)cc3)CC2)nn1 [Compound 12, 6-{1-[4-(4-cyclopropylphenoxy)benzoyl]piperidin-4-yl}pyridazin-3-amine] | 400 |
| Cc1ccc(Oc2ccc(C(=O)N3CCC(c4ccc(N)nn4)CC3)cc2)cc1 [Compound 5, 6-{1-[4-(4-methylphenoxy)benzoyl]piperidin-4-yl}pyridazin-3-amine] | 372 |
| CCc1ccc(Oc2ccc(C(=O)N3CCN(c4ccc(N)nc4)CC3)cc2)cc1 [Compound 14, 5-{4-[4-(4-ethylphenoxy)benzoyl]piperazin-1-yl}pyridin-2-amine] | 324 |
| CC(C)c1ccc(Oc2ccc(C(=O)N3CCC(c4ccc(N)nn4)CC3)cc2)cc1 [Compound 17, 6-(1-{4-[4-(propan-2-yl)phenoxy]benzoyl}piperidin-4-yl)pyridazin-3-amine] | 2190 |
| CN(C)C(=O)c1ccc(Oc2ccc(C(=O)N3CCN(c4ccc(N)nn4)CC3)cc2)cc1 [Compound 25, 4-{4-[4-(6-aminopyridazin-3-yl)piperazine-1-carbonyl]phenoxy}-N,N-dimethylbenzamide] | 8970 |
| Nc1ccc(C2CCN(C(=O)c3ccc(Oc4ccc(Cl)cc4)cc3)CC2)nn1 [Compound 13, 6-{1-[4-(4-chlorophenoxy)benzoyl]piperidin-4-yl}pyridazin-3-amine] | 266 |
| CC(=O)c1ccc(Oc2ccc(C(=O)N3CCC(c4ccc(N)nn4)CC3)cc2)cc1 [Compound 16, 1-(4-{4-[4-(6-aminopyridazin-3-yl)piperidine-1-carbonyl]phenoxy}phenyl)ethan-1-one] | 2070 |
| Nc1ccc(C2CCN(C(=O)c3ccc(Oc4ccc(F)cc4)cc3)CC2)nn1 [Compound 10, 6-{1-[4-(4-fluorophenoxy)benzoyl]piperidin-4-yl}pyridazin-3-amine] | 75 |
| COc1ccc(Oc2ccc(C(=O)N3CCC(c4ccc(N)nn4)CC3)cc2)cc1 [Compound 9, 6-{1-[4-(4-methoxyphenoxy)benzoyl]piperidin-4-yl}pyridazin-3-amine] | 511 |
| Nc1ccc(N2CCN(C(=O)c3ccc(Oc4ccccc4)cc3)CC2)cn1 [Compound 15, 5-[4-(4-phenoxybenzoyl)piperazin-1-yl]pyridin-2-amine] | 422 |
| Nc1ccc(C2CCN(C(=O)c3ccc(Oc4ccccc4)cc3)CC2)cn1 [Compound 1, 5-[1-(4-phenoxybenzoyl)piperidin-4-yl]pyridin-2-amine] | 326 |

Results, then the compound that gave them:

| IC50 [nM] | Structure (SMILES) |
| --- | --- |
| 1040 | Nc1ccc(N2CCN(C(=O)c3ccc(Oc4ccc(Cl)cc4)cc3)CC2)nn1 [Compound 11, 6-{4-[4-(4-chlorophenoxy)benzoyl]piperazin-1-yl}pyridazin-3-amine] |
| 504 | Nc1ccc(C2CCN(C(=O)c3ccc(Oc4ccc(C(F)(F)F)cc4)cc3)CC2)nn1 [Compound 2, 6-(1-{4-[4-(trifluoromethyl)phenoxy]benzoyl}piperidin-4-yl)pyridazin-3-amine] |
| 540 | Nc1ccc(N2CCN(C(=O)c3ccc(Oc4ccc(C5CC5)cc4)cc3)CC2)nn1 [Compound 6, 6-{4-[4-(4-cyclopropylphenoxy)benzoyl]piperazin-1-yl}pyridazin-3-amine] |
| 199 | Nc1ccc(N2CCN(C(=O)c3ccc(Oc4ccccc4)cc3)CC2)nn1 [Compound 24, 6-[4-(4-phenoxybenzoyl)piperazin-1-yl]pyridazin-3-amine] |
| 3750 | Nc1ccc(N2CCN(C(=O)c3ccc(Oc4ccc(C(F)(F)F)cc4)cc3)CC2)nn1 [Compound 26, 6-(4-{4-[4-(trifluoromethyl)phenoxy]benzoyl}piperazin-1-yl)pyridazin-3-amine] |
| 1310 | CC(C)c1ccc(Oc2ccc(C(=O)N3CCN(c4ccc(N)nn4)CC3)cc2)cc1 [Compound 18, 6-(4-{4-[4-(propan-2-yl)phenoxy]benzoyl}piperazin-1-yl)pyridazin-3-amine] |
| 1330 | Nc1ccc(N2CCN(C(=O)c3ccc(Oc4ccc(C(F)(F)F)cc4)cc3)CC2)cn1 [Compound 19, 5-(4-{4-[4-(trifluoromethyl)phenoxy]benzoyl}piperazin-1-yl)pyridin-2-amine] |
| 4670 | N#Cc1ccc(Oc2ccc(C(=O)N3CCN(c4ccc(N)nn4)CC3)cc2)cc1 [Compound 7, 4-{4-[4-(6-aminopyridazin-3-yl)piperazine-1-carbonyl]phenoxy}benzonitrile] |

The compounds below were run against T1, human TRPC6 (assay: High Throughput Screening Assay Method 2 (membrane potential dye, GSK1702934A agonist, HEK293 stably transfected with human TRPC6)). Conditions: antagonist effect against human TRPC6, 3 μM GSK1702934A agonist, HEK293 TRPC6 cells, read-out: Fluorescence TRPC6 IC50.
Assay type: cell-based
From the text: as §1
The commercially available HEK293 cell line (ATCC) was stably transfected with an human TRPC6 gene construct in pcDNA3.1(+) (Thermo Fisher) and screened to find a clone with TRPC6 expression. These cells were maintained in growth medium recommended by the manufacturer supplemented with 400 μg/ml G418 to promote retention of the TRPC6 construct. After growing to near confluency, cells were plated at a density of 15,000 cells/well in clear bottom black walled poly-D-Lys coated 384-well tissue culture treated plates (TwinHelix, cat. #GR 4332 CPL) in growth medium lacking G418, and allowed to grow for 24 hrs. Growth media was removed from the wells and cells were then loaded with 20 μL of 0.5× Membrane Potential sensitive dye (Molecular Devices) in the presence of 30 μM BAPTA-AM (Invitrogen) in Tyrode's assay buffer (130 mM NaCl, 5 mM KCl, 0.15 mM CaCl2), 1 mM MgCl2, 5 mM NaHCO3, 20 mM HEPES, pH 7.4) and incubated for 60 min at room temperature in the dark. Ten μL/well of test compound or controls was added to the wells with the FLIPR^TETRA (Molecular Devices) and incubated for 5 minutes. Compounds were tested at eight concentrations (10, 3.16, 1, 0.316, 0.1, 0.0316, 0.01 and 0.00316 μM diluted in Tyrode's assay buffer and 0.5% DMSO, final concentration) with inter-plate duplicate data points. Subsequently, 15 μL/well of GSK1702934A agonist in Tyrode's assay buffer was added to a final concentration of 3 μM by the FLIPR^TETRA and the signal of the emitted fluorescence (Excitation: 510-545 nm, Emission: 565-625 nm) was recorded for 3 minutes. Negative and positive controls were included on each plate. Negative controls wells consisted of cells exposed to Tyrode's assay buffer and agonist solution, but no test compound. Positive control consisted of cells exposed to […] Verapamil hydrochloride (Tocris, cat. #0654) diluted in Tyrode's assay buffer and 0.5% DMSO final concentration and agonist solution. Inhibition was expressed as a percentage of control, with 0% activity being a result in which the response value of the test wells reached a level identical to the wells containing Verapamil plus GSK1702934A and 100% activity being a result in which the response value of the test wells reached a level identical to the wells containing GSK1702934A alone. Genedata Screener® 14.0.6 was used for data analysis to fit IC50 curves.

| IC50 [nM] | Structure (SMILES) |
| --- | --- |
| 135 | COc1cc(C(=O)N2CCC(c3cnc(N)cc3OC)CC2)c(F)cc1OCC1CCC1 [Compound 36, 5-{1-[4-(Cyclobutylmethoxy)-2-fluoro-5-methoxybenzoyl]piperidin-4-yl}-4-methoxypyridin-2-amine] |
| 141 | Nc1ccc(C2CCN(C(=O)c3ccc(Oc4ccc(F)cc4)c(F)c3)CC2)nn1 [Compound 48, 6-{1-[3-Fluoro-4-(4-fluorophenoxy)benzoyl]piperidin-4-yl}pyridazin-3-amine] |
| 199 | COc1cc(C(=O)N2CCC(c3cnc(N)cc3OC)CC2)ccc1OCC1CCC1 [Compound 44, 5-{1-[4-(Cyclobutylmethoxy)-3-methoxybenzoyl]piperidin-4-yl}-4-methoxypyridin-2-amine] |
